Laboratory results reported in paper PMC9516243, “Design of stapled peptide-based PROTACs for MDM2/MDMX atypical degradation and tumor suppression” (Theranostics, 2022).
pIC50: −log10 of the molar value. Positions of bridges follow the written chain, without caps; N, C: chain ends. Non-standard residues stand in square brackets, D forms with d. Residues, ends and D or L forms follow the SMILES beside them. Hyp = O=C(O)[C@@H]1C[C@@H](O)CN1; R8 = C=CCCCCCC[C@@](C)(N)C(=O)O; hLeu = CC(C)CC[C@H](N)C(=O)O; S5 = C=CCCC[C@](C)(N)C(=O)O; PEG3 = NCCOCCOCCOCCC(=O)O; PEG2 = NCCOCCOCCC(=O)O; AEA = NCCOCC(=O)O

Columns and labels:
circular dichroism = details: phosphate buffer (PB); pH 7.2; 20 °C; 10-50 uM
[1] = α-Helicity by CD spectroscopy; assay type: physicochemical; details: PB pH 7.2, 10-50 µM peptide, 20°C, calculated from [θ]222
Method: Peptides were dissolved in PB (pH = 7.2) to concentrations ranging from 10 to 50 µM. CD spectra were obtained on a Jasco J-715 spectropolarimeter at 20°C. The spectra were collected using a 0.1 cm path length quartz cuvette with the following measurement parameters: wavelength, 185-255 nm; step resolution, 0.1 nm; speed, 20 nm/min; accumulations, 6; bandwidth, 1 nm. The helical content of each peptide was calculated as reported previously.

HCT116 p53^-/- cells = experiment: Cell viability assay (CCK-8); assay type: cell-based, human; details: 72 h
Method: (§1) The human colon carcinoma cell line HCT116 p53^+/+ was obtained from the Cell Bank of the Chinese Academy of Sciences (Shanghai, China). HCT116 p53^-/- cells were generously provided by Prof. Vogelstein of Johns Hopkins University. Both cell lines were cultured in McCoy's 5A medium (Gibco, USA) containing 10% FBS, 100 units/ml penicillin, and 100 μg/ml streptomycin at 37 °C in a humidified incubator containing 5% CO2. Cell viability was measured using a Cell Counting Kit-8 (CCK-8) (Dojindo, Kumamoto, Japan) according to the manufacturer's instructions. In brief, the cells (5 × 10^3 cells/well in […] medium) were cultured for 24 h in 96-well microplates in a humidified 5% CO2 incubator at 37 °C and then treated with varying concentrations of compounds or 0.1% DMSO vehicle control.

HCT116 p53^+/+ cells = experiment: Cell viability assay (CCK-8); assay type: cell-based, human; details: 72 h
Method: as §1

Row | α-helicity (%) [1] | pIC50 (HCT116 p53^-/- cells) | pIC50 (HCT116 p53^+/+ cells) | SMILES | helicity (circular dichroism)
1 | 17% |  |  | CC(=O)N[C@H](C(=O)N[C@@H](CO)C(=O)N[C@@H](Cc1ccccc1)C(=O)N[C@@H](C)C(=O)N[C@@H](CCC(=O)O)C(=O)N[C@@H](Cc1ccc(O)cc1)C(=O)N[C@@H](Cc1c[nH]c2ccccc12)C(=O)N[C@@H](C)C(=O)N[C@@H](CC(C)C)C(=O)N[C@@H](CC(C)C)C(=O)N[C@@H](CO)C(=O)NCCOCCOCCC(=O)N[C@@H](CC(C)C)C(=O)N[C@@H](C)C(=O)N1C[C@H](O)C[C@H]1C(=O)N[C@@H](Cc1ccc(O)cc1)C(=O)N[C@@H](CCC(C)C)C(=O)N1CCC[C@H]1C(N)=O)[C@@H](C)O [PMI-HIF1-2] | 17%
2 | 17% |  |  | CC(=O)N[C@H](C(=O)N[C@@H](CO)C(=O)N[C@@H](Cc1ccccc1)C(=O)N[C@@H](C)C(=O)N[C@@H](CCC(=O)O)C(=O)N[C@@H](Cc1ccc(O)cc1)C(=O)N[C@@H](Cc1c[nH]c2ccccc12)C(=O)N[C@@H](C)C(=O)N[C@@H](CC(C)C)C(=O)N[C@@H](CC(C)C)C(=O)N[C@@H](CO)C(=O)NCCOCCOCCOCCC(=O)N[C@@H](CC(C)C)C(=O)N[C@@H](C)C(=O)N1C[C@H](O)C[C@H]1C(=O)N[C@@H](Cc1ccc(O)cc1)C(=O)N[C@@H](CCC(C)C)C(=O)N1CCC[C@H]1C(N)=O)[C@@H](C)O [PMI-HIF1-3] | 17%
3 | 4% | < 4.00 | < 4.00 | CC(=O)N[C@H](C(=O)N[C@@H](CO)C(=O)N[C@@H](Cc1ccccc1)C(=O)N[C@@]1(C)CCCC=CCCC[C@@](C)(C(=O)N[C@@H](CC(C)C)C(=O)N[C@@H](CC(C)C)C(=O)N[C@@H](CO)C(N)=O)NC(=O)[C@H](Cc2c[nH]c3ccccc23)NC(=O)[C@H](Cc2ccc(O)cc2)NC(=O)[C@H](CCC(=O)O)NC1=O)[C@@H](C)O [SPMI1] (Ac-TSF[S5]EYW[S5]LLS-NH2; staple 4-8) | 4%
4 | 3% | < 4.00 | 4.09 | CC(=O)N[C@H](C(=O)N[C@@H](CO)C(=O)N[C@@H](Cc1ccccc1)C(=O)N[C@@]1(C)CCCC=CCCC[C@@](C)(C(=O)N[C@@H](CC(C)C)C(=O)N[C@@H](CC(C)C)C(=O)N[C@@H](CO)C(=O)NCCOCC(=O)N[C@@H](CC(C)C)C(=O)N[C@@H](C)C(=O)N2C[C@H](O)C[C@H]2C(=O)N[C@@H](Cc2ccc(O)cc2)C(=O)N[C@@H](CCC(C)C)C(=O)N2CCC[C@H]2C(N)=O)NC(=O)[C@H](Cc2c[nH]c3ccccc23)NC(=O)[C@H](Cc2ccc(O)cc2)NC(=O)[C@H](CCC(=O)O)NC1=O)[C@@H](C)O [SPMI-HIF1-1] (Ac-TSF[S5]EYW[S5]LLS[AEA]LA[Hyp]Y[hLeu]P-NH2; staple 4-8) | 3%
5 | 2% | < 4.00 | 4.07 | CC(=O)N[C@H](C(=O)N[C@@H](CO)C(=O)N[C@@H](Cc1ccccc1)C(=O)N[C@@]1(C)CCCC=CCCC[C@@](C)(C(=O)N[C@@H](CC(C)C)C(=O)N[C@@H](CC(C)C)C(=O)N[C@@H](CO)C(=O)NCCOCCOCCC(=O)N[C@@H](CC(C)C)C(=O)N[C@@H](C)C(=O)N2C[C@H](O)C[C@H]2C(=O)N[C@@H](Cc2ccc(O)cc2)C(=O)N[C@@H](CCC(C)C)C(=O)N2CCC[C@H]2C(N)=O)NC(=O)[C@H](Cc2c[nH]c3ccccc23)NC(=O)[C@H](Cc2ccc(O)cc2)NC(=O)[C@H](CCC(=O)O)NC1=O)[C@@H](C)O [SPMI-HIF1-2] (Ac-TSF[S5]EYW[S5]LLS[PEG2]LA[Hyp]Y[hLeu]P-NH2; staple 4-8) | 2%
6 | 27% | < 4.00 | 4.24 | CC(=O)N[C@H](C(=O)N[C@@H](CO)C(=O)N[C@@H](Cc1ccccc1)C(=O)N[C@@]1(C)CCCC=CCCC[C@@](C)(C(=O)N[C@@H](CC(C)C)C(=O)N[C@@H](CC(C)C)C(=O)N[C@@H](CO)C(=O)NCCOCCOCCOCCC(=O)N[C@@H](CC(C)C)C(=O)N[C@@H](C)C(=O)N2C[C@H](O)C[C@H]2C(=O)N[C@@H](Cc2ccc(O)cc2)C(=O)N[C@@H](CCC(C)C)C(=O)N2CCC[C@H]2C(N)=O)NC(=O)[C@H](Cc2c[nH]c3ccccc23)NC(=O)[C@H](Cc2ccc(O)cc2)NC(=O)[C@H](CCC(=O)O)NC1=O)[C@@H](C)O [SPMI-HIF1-3] (Ac-TSF[S5]EYW[S5]LLS[PEG3]LA[Hyp]Y[hLeu]P-NH2; staple 4-8) | 27%
7 | 37% | < 4.00 | 4.97 | CC(=O)N[C@H](C(=O)N[C@@H](CO)C(=O)N[C@@H](Cc1ccccc1)C(=O)N[C@]1(C)CCCCCCC=CCCC[C@@](C)(C(=O)NCCOCCOCCC(=O)N[C@@H](CC(C)C)C(=O)N[C@@H](C)C(=O)N2C[C@H](O)C[C@H]2C(=O)N[C@@H](Cc2ccc(O)cc2)C(=O)N[C@@H](CCC(C)C)C(=O)N2CCC[C@H]2C(N)=O)NC(=O)[C@H](CC(C)C)NC(=O)[C@H](CC(C)C)NC(=O)[C@H](C)NC(=O)[C@H](Cc2c[nH]c3ccccc23)NC(=O)[C@H](Cc2ccc(O)cc2)NC(=O)[C@H](CCC(=O)O)NC1=O)[C@@H](C)O [SPMI-HIF2-2] (Ac-TSF[R8]EYWALL[S5][PEG2]LA[Hyp]Y[hLeu]P-NH2; staple 4-11) | 37%
8 | 24% | < 4.00 | 4.82 | CC(=O)N[C@H](C(=O)N[C@@H](CO)C(=O)N[C@@H](Cc1ccccc1)C(=O)N[C@]1(C)CCCCCCC=CCCC[C@@](C)(C(=O)NCCOCCOCCOCCC(=O)N[C@@H](CC(C)C)C(=O)N[C@@H](C)C(=O)N2C[C@H](O)C[C@H]2C(=O)N[C@@H](Cc2ccc(O)cc2)C(=O)N[C@@H](CCC(C)C)C(=O)N2CCC[C@H]2C(N)=O)NC(=O)[C@H](CC(C)C)NC(=O)[C@H](CC(C)C)NC(=O)[C@H](C)NC(=O)[C@H](Cc2c[nH]c3ccccc23)NC(=O)[C@H](Cc2ccc(O)cc2)NC(=O)[C@H](CCC(=O)O)NC1=O)[C@@H](C)O [SPMI-HIF2-3] (Ac-TSF[R8]EYWALL[S5][PEG3]LA[Hyp]Y[hLeu]P-NH2; staple 4-11) | 24%
